Test results: patent US10259810B2, “N-sulfonylated pyrazolo[3,4-b]pyridin-6-carboxamides and method of use” (AbbVie S.à.r.l., priority 2015, dated 2019)
Like-named read-outs stand apart in the source and are kept apart here.

Experiments:
Format in all cases: cell-based
ΔF508-CFTR [1] = biological target: T1, ΔF508-CFTR (Homo sapiens, UniProt P13569, DEL508-508); assay: CFTR cell surface levels using HRP-tagged ΔF508-CFTR expressing CFBE cells, in the presence of a co-corrector; conditions: HRP-tagged ΔF508-CFTR CFBE cells, in the presence of 3 μM co-corrector; for EC50: read-out: EC50
T1 construct: host or cells: CFBE41o-, doxycycline-inducible
In short: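 Chemiluminescent read-out of surface HRP (15 min, dark) after PBS washes. Activity is normalized as 100×(sample−DMSO)/(3 μM co-corrector alone−DMSO).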

ΔF508-CFTR [2] = biological target: T1, ΔF508-CFTR; assay: CFTR cell surface levels using HRP-tagged ΔF508-CFTR expressing CFBE cells, intrinsic corrector capacity; parameters: % Activation: concentration or dose not given beside the values; conditions: HRP-tagged ΔF508-CFTR expressing CFBE41o- cells, compound alone (intrinsic corrector capacity), 20 hours at 33° C.; for EC50: read-out: EC50
In short: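 Surface ΔF508-CFTR was measured as HRP chemiluminescence from an extracellular-loop-4 tag, expressed as percent activity between DMSO and a […] corrector control.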

CFTR ΔF508 = biological target: T2, CFTR ΔF508 (Homo sapiens, UniProt P13569, DEL508-508); assay: Chronic TECC assay, primary bronchial epithelial cells of CF patients homozygous for CFTR ΔF508 (corrector, co-corrector and potentiator); conditions: chronic TECC; for % Activity at 1 μM (Ieq*) / % Activity at 1 μM (AUC**): test compound at 1 μM
T2 construct: bronchial epithelial cells isolated from CF patients homozygous for the CFTR ΔF508 mutation; McGill University; Asterand; University of North Carolina hAEC-CF; host or cells: primary human bronchial epithelial cells from CF patients homozygous for ΔF508, differentiated at air-liquid interface
Protocol: Primary Bronchial Epithelial Cells Protocol
The TECC (Tranepithelial Clamp Circuit, EP-design) assay measures the functionality of the cystic fibrosis Transmembrane Conductance regulator (CFTR) by measuring the short circuit current (Isc) generated over the basolateral and apical membrane of lung epithelial cells. In TECC the transepithelial potential PD and transepithelial resistance (Rt) are measured in an open circuit and transformed to Ieq using Ohm's law. 24 Wells can be measured simultaneously allowing a higher throughput compared to Ussing chambers.
For this purpose, bronchial epithelial cells isolated from CF patients homozygous for the CFTR ΔF508 mutation (hAEC-CF, Epithelix, Geneva, Switzerland; McGill University, Montreal, Qc; Asterand, Detroit, Mich.; University of North Carolina, Chapel Hill, N.C.) are plated on type IV collagen-coated Transwell® supports (Costar).
For electrophysiological recording of the “chronic” experiments, the human airway epithelia are mounted in the TECC heating plate for electrophysiological measurement and kept at 37° C. The epithelia are bathed in a NaCl-Ringer solution (120 mM NaCl, 25 mM NaHCO3, 1.2 mM CaCl2, 1.2 mM MgCl2, 0.8 mM KH2PO4, 0.8 mM K2HPO4, pH 7.4, 5 mM glucose) on both the basolateral and apical sides. Test compounds (corrector, co-corrector, 4-[(2R,4R)-4-({[1-(2,2-difluoro-1,3-benzodioxol-5-yl)cyclopropyl]carbonyl}amino)-7-(difluoromethoxy)-3,4-dihydro-2H-chromen-2-yl]benzoic acid, and potentiator, N-(3-carbamoyl-5,5,7,7-tetramethyl-4,7-dihydro-5H-thieno[2,3-c]pyran-2-yl)-1H-pyrazole-5-carboxamide), are re-added to the recording solution prior to measurement. […] Apical amiloride is used to inhibit the endogenous ENaC currents while forskolin is applied on both apical and basolateral side to stimulate CFTR. Measurements are done during a 20 minute timeframe with recordings every 2 minutes. The increase in Ieq is used as a measure for the increased CFTR activity, EC50 values can be generated by measuring impact of different concentrations of compound on Ieq on primary cells, for this purpose each transwell is treated with a different compound concentration. […] Raw data were normalized to percentage activity values using the equation: 100×(Sample−Negative control)/(Positive control−Negative Control).

[3] = Ieq = calculations based on the maximum current, read-out: EC50 (nM) (Ieq*)
[4] = Ieq = calculations based on the maximum current
[5] = AUC = full area under the curve upon forskolin stimulation

T2 sequence (P13569 with tags, fused parts or gaps DEL508-508): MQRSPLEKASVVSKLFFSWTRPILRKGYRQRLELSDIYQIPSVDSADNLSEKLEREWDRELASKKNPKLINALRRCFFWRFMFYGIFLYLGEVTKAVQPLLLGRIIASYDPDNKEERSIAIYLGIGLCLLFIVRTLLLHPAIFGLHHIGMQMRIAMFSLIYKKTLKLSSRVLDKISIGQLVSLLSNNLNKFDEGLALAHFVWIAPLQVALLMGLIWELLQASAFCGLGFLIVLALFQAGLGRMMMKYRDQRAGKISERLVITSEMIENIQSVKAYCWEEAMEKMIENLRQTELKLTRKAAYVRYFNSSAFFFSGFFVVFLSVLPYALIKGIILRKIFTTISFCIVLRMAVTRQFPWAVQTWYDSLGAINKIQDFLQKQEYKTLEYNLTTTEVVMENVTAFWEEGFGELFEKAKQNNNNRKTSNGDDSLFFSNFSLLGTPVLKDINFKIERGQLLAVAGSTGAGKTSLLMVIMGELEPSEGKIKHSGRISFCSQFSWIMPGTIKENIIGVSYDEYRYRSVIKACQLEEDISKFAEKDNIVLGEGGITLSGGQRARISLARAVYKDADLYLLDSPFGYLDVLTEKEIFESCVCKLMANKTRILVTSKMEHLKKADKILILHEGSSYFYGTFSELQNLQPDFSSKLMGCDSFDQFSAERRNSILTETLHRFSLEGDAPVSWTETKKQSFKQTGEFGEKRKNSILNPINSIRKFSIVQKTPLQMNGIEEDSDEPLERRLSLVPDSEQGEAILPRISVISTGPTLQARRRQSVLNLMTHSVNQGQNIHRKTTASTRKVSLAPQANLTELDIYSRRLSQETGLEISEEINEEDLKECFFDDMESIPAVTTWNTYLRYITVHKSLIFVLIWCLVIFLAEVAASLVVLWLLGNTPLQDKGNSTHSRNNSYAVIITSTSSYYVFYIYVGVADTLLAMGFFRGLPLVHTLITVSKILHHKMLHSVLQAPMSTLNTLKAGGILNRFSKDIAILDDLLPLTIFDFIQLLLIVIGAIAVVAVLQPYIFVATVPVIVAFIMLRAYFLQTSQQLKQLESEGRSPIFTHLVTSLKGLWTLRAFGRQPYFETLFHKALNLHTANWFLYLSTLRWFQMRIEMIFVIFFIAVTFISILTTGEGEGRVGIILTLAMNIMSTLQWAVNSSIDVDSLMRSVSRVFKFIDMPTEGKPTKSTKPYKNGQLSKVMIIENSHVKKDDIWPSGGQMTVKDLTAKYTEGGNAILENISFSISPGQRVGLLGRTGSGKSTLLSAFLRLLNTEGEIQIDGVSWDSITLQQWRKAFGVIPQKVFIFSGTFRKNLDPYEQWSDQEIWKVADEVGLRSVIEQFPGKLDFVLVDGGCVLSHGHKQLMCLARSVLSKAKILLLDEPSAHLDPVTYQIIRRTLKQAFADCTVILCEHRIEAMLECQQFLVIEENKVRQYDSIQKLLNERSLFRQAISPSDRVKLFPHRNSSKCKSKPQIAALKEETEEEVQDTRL
T1 sequence (P13569 with tags, fused parts or gaps DEL508-508): as above

Row | Compound | % Activation (ΔF508-CFTR [1]) | EC50 (ΔF508-CFTR [1]) | % Activation (ΔF508-CFTR [2]) | EC50 (ΔF508-CFTR [2]) | EC50 (CFTR ΔF508; [3]) | % Activity at 1 μM (Ieq*) (CFTR ΔF508; [4]) | % Activity at 3 μM (AUC**) (CFTR ΔF508; test compound at 3 μM, AUC = full area under the curve upon forskolin stimulation) | EC50 (CFTR ΔF508; AUC = full area under the curve upon forskolin stimulation, read-out: EC50 (nM) (AUC**)) | % Activity at 1 μM (AUC**) (CFTR ΔF508; [5])
1 | CCS(=O)(=O)NC(=O)c1cc(-c2cnc(N(C)C)nc2)c2c(C(C)C)nn(-c3cccc(N4CCOCC4)c3)c2n1 [Compound 30, 4-[2-(dimethylamino)pyrimidin-5-yl]-N-(ethanesulfonyl)-1-[3-(morpholin-4-yl)phenyl]-3-(propan-2-yl)-1H-pyrazolo[3,4-b]pyridine-6-carboxamide] | 580.97% | 215 nM | 369.93% | 436 nM | < 30 nM | 450% |  |  | 
2 | CC(C)c1nn(-c2ccccc2)c2nc(C(=O)NS(C)(=O)=O)cc(-c3ccc(N4CCOCC4)nc3)c12 [Compound 34, N-(methanesulfonyl)-4-[6-(morpholin-4-yl)pyridin-3-yl]-1-phenyl-3-(propan-2-yl)-1H-pyrazolo[3,4-b]pyridine-6-carboxamide] | 462.55% | 356 nM | 292.95% | 611 nM | < 30 nM | 270% |  |  | 
3 | CN(c1ccc(-c2cc(C(=O)NS(C)(=O)=O)nc3c2c(C2CCC2)nn3-c2ccccc2)cn1)C1CCOCC1 [Compound 74, 3-cyclobutyl-N-(methanesulfonyl)-4-{6-[methyl(oxan-4-yl)amino]pyridin-3-yl}-1-phenyl-1H-pyrazolo[3,4-b]pyridine-6-carboxamide] | 424.82% | 357 nM | 253.38% | 549 nM | < 30 nM | 240% |  |  | 
4 | CC(C)c1nn(C2CCCCC2)c2nc(C(=O)NS(C)(=O)=O)cc(-c3ccc(N4CCC(C#N)CC4)cc3)c12 [Compound 80, 4-[4-(4-cyanopiperidin-1-yl)phenyl]-1-cyclohexyl-N-(methanesulfonyl)-3-(propan-2-yl)-1H-pyrazolo[3,4-b]pyridine-6-carboxamide] | 457.5% | 389 nM | 258.38% | 436 nM | 19.3 nM | 250% |  |  | 
5 | CC(C)c1nn(-c2cccc(N3CCOCC3)c2)c2nc(C(=O)NS(C)(=O)=O)cc(-c3ccc(N4CCC(C#N)CC4)nc3)c12 [Compound 85, 4-[6-(4-cyanopiperidin-1-yl)pyridin-3-yl]-N-(methanesulfonyl)-1-[3-(morpholin-4-yl)phenyl]-3-(propan-2-yl)-1H-pyrazolo[3,4-b]pyridine-6-carboxamide] | 570.16% | 232 nM | 426.04% | 421 nM | > 1000 nM | 120% |  |  | 
6 | COCCN(C)c1ccc(-c2cc(C(=O)NS(C)(=O)=O)nc3c2c(C(C)C)nn3-c2cccc(N3CCOCC3)c2)cn1 [Compound 86, N-(methanesulfonyl)-4-{6-[(2-methoxyethyl)(methyl)amino]pyridin-3-yl}-1-[3-(morpholin-4-yl)phenyl]-3-(propan-2-yl)-1H-pyrazolo[3,4-b]pyridine-6-carboxamide] | 489.56% | 255 nM | 329.92% | 637 nM | 30 nM | 210% |  |  | 
7 | CC(C)c1nn(-c2cccc(N3CCOCC3)c2)c2nc(C(=O)NS(C)(=O)=O)cc(-c3ccc(N(C)C4CCOCC4)nc3)c12 [Compound 87, N-(methanesulfonyl)-4-{6-[methyl(oxan-4-yl)amino]pyridin-3-yl}-1-[3-(morpholin-4-yl)phenyl]-3-(propan-2-yl)-1H-pyrazolo[3,4-b]pyridine-6-carboxamide] | 623.62% | 456 nM | 422.84% | 409 nM | < 30 nM | 150% |  |  | 
8 | CC(C)c1nn(-c2cccc(N(C)C)c2)c2nc(C(=O)NS(C)(=O)=O)cc(-c3cnc(N(C)C4CCOCC4)nc3)c12 [Compound 91, 1-[3-(dimethylamino)phenyl]-N-(methanesulfonyl)-4-{2-[methyl(oxan-4-yl)amino]pyrimidin-5-yl}-3-(propan-2-yl)-1H-pyrazolo[3,4-b]pyridine-6-carboxamide] | 619.45% | 891 nM | 388.15% | 382 nM | < 30 nM | 250% |  |  | 
9 | CC1CN(c2ccc(-c3cc(C(=O)NS(C)(=O)=O)nc4c3c(C(C)C)nn4C3CCCCC3)cn2)CC(C)O1 (centres unmarked) [Compound 93, 1-cyclohexyl-4-[6-(2,6-dimethylmorpholin-4-yl)pyridin-3-yl]-N-(methanesulfonyl)-3-(propan-2-yl)-1H-pyrazolo[3,4-b]pyridine-6-carboxamide] | 456.5% | 270 nM | 224.23% | 501 nM | < 30 nM | 220% |  |  | 
10 | CN(C)S(=O)(=O)NC(=O)c1cc(OCC2CCOCC2)c2c(C3CCC3)nn(-c3ccccc3)c2n1 [Compound 334, 3-cyclobutyl-N-(dimethylsulfamoyl)-4-[(oxan-4-yl)methoxy]-1-phenyl-1H-pyrazolo[3,4-b]pyridine-6-carboxamide] |  |  | 121.75% | 167 nM |  |  | 345.13% |  | 
11 | CS(=O)(=O)NC(=O)c1cc(N2CCC(N3CCOCC3)CC2)c2c(C3CCC3)nn(-c3ccc(F)cc3)c2n1 [Compound 421, 3-cyclobutyl-1-(4-fluorophenyl)-N-(methanesulfonyl)-4-[4-(morpholin-4-yl)piperidin-1-yl]-1H-pyrazolo[3,4-b]pyridine-6-carboxamide] |  |  |  |  |  |  |  | 45.6 nM | 193.3333%
12 | COCCN1CCN(c2ccc(-c3cc(C(=O)NS(=O)(=O)N(C)C)nc4c3c(C3CCC3)nn4C3CCCCC3)cn2)CC1 [Compound 552, 3-cyclobutyl-1-cyclohexyl-N-(dimethylsulfamoyl)-4-{6-[4-(2-methoxyethyl)piperazin-1-yl]pyridin-3-yl}-1H-pyrazolo[3,4-b]pyridine-6-carboxamide] | 364.2% | 130 nM |  |  |  |  |  |  | 235.2857%
13 | CC(C)Oc1nn(C2CCCCC2)c2nc(C(=O)NS(=O)(=O)N(C)C)cc(-c3ccc(N4CCN(C5CC5)CC4)cc3)c12 [Compound 559, 1-cyclohexyl-4-[4-(4-cyclopropylpiperazin-1-yl)phenyl]-N-(dimethylsulfamoyl)-3-[(propan-2-yl)oxy]-1H-pyrazolo[3,4-b]pyridine-6-carboxamide] | 291.03% | 154 nM |  |  |  |  |  |  | 231.6378%
